Data published in US12529701B2, “Method for predicting sensitivity of cancer cell to GPX4 inhibitor” (Chugai Seiyaku Kabushiki Kaisha, priority 2019, dated 2026).

Assays:
SK-HEP-1 tumor = assay: Test for drug efficacy of ML210 on SK-HEP-1 tumor-bearing mouse; type: in vivo, BALB/c-nu/nu mice; details: SK-HEP-1 tumor-bearing mice; oral, once a day, 100 mg/kg from day 11; measured days 11, 14 and 18; versus vehicle; FIG. 9
Description: For examining the efficacy of the GPX4 inhibitor on SWI/SNF complex factor-deficient cancer in vivo, a test was conducted in which ML210 was administered to mice in which SK-HEP-1 (human cancer cell line suppressing a function of SMARCA4) was transplanted (SK-HEP-1 tumor-bearing mice). […]
Subsequently, to mice (SK-HEP-1 tumor-bearing mice) for which the engraftment of the tumor (cancer cell) had been confirmed, a dosing liquid obtained by suspending ML210 at a predetermined concentration in a mixed liquid of 10% dimethyl sulfoxide (manufactured by Wako Company, product code: 043-07216), 10% Cremophor (manufactured by Sigma-Aldrich Co. LLC, product code: C5135), 15% polyethylene glycol 400 (manufactured by Wako Company, product code: 161-09065) and 15% hydroxypropyl-β-cyclodextrin (manufactured by Nihon Shokuhin Kako Co., Ltd., product code: 7585-39-9) was orally administered at a predetermined dose (20 mL/kg) once a day to a daily dosage of 100 mg/kg upon the confirmation of the implantation. The day of inoculation of SK-HEP-1 was defined as day 0, administration of ML210 was started on day 11, and the volume of the tumor was measured on days 11, 14 and 18. The minor diameter and the major diameter of the tumor were measured using an electronic caliper (manufactured by Mitutoyo Corporation, product code: CD-15AX), and the volume of the tumor was calculated by the […].

[1] = system: cancer cell lines shown in Table 4; assay: Test for inhibition of activity of GPX4 1 (cell growth inhibition under a GPX4 inhibitor); type: cell-based, human; details: cancer cell having a suppressed function of SMARCA4
Description: In each cancer cell line, cell growth inhibition activity under a GPX4 inhibitor was evaluated. As the GPX4 inhibitor, ML210 (CAS No: 1360705-96-9) which is a low-molecular GPX4 inhibitor reported to be a compound inhibiting the enzymatic activity of GPX4:
These compounds were each added, and each cell line was seeded at 100 μL/well so as to attain the seeding density (2) shown in Table 5 below. The cells were cultured for 7 days, the intracellular ATP which is a marker for cell survival was then measured using Cell Titer-Glo 2.0 Cell Viability Assay (manufactured by Promega Corporation), and the cell survival rate was calculated, where the intracellular ATP level in each cancer cell line given only a solvent (dimethyl sulfoxide (DMSO) or water) for the compound and cultured for 7 days was defined as 100%.

SMILES | volume of the tumor (SK-HEP-1 tumor) | cell death and cell growth suppression [1]
Cc1onc(C(=O)N2CCN(C(c3ccc(Cl)cc3)c3ccc(Cl)cc3)CC2)c1[N+](=O)[O-] [ML210] | an increase in volume of the tumor was suppressed as compared to the group given the vehicle | markedly suppress cell growth
COC(=O)c1ccc([C@H]2c3[nH]c4ccccc4c3C[C@H](C(=O)OC)N2C(=O)CCl)cc1 [RSL3] | – | markedly suppress cell growth
